How the values were obtained:
STK3 = STK3 (Homo sapiens (Human), UniProt Q13188); test: ADP-Glo kinase assay, STK3; format: biochemical; conditions: ADP-Glo, 50 μM ATP; read-out: STK3 IC50
Description: (§1) The STK3 kinase assay was performed in 5 μL reaction buffer containing 50 ng recombinant human STK3 protein (full length, SignalChem #S24-10G; Richmond, Canada), 250 μg/mL myelin basic protein (Sigma-Aldrich #M1891; St. Louis, MO, USA), and 50 μM ATP (Sigma-Aldrich #A7699). The STK4 kinase assay was performed in 5 μL reaction buffer containing 50 ng recombinant human STK4 protein (full length, SignalChem #S25-10G), 300 μg/mL Axltide (SignalChem #A16-58), and 50 μM ATP. […] Three experiments were performed, each in triplicate.

STK4 = STK4 (Homo sapiens (Human), UniProt Q13043); test: ADP-Glo kinase assay, STK4; format: biochemical; conditions: ADP-Glo, 50 μM ATP; read-out: STK4 IC50
Chain of STK4 (Q13043 whole entry): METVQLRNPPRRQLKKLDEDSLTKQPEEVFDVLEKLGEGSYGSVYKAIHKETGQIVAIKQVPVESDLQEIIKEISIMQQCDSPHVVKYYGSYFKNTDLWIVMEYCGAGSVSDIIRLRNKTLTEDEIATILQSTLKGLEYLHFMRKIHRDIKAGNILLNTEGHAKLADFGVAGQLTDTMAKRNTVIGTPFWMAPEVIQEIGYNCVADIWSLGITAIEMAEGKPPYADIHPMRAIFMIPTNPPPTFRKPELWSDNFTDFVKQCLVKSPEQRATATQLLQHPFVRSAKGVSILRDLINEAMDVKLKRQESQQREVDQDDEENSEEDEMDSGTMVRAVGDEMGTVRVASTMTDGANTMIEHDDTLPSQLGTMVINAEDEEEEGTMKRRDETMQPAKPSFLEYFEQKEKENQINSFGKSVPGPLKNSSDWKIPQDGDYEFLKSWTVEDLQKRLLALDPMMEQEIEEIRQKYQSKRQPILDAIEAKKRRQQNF
Description: as §1

Chain of STK3 (Q13188 whole entry): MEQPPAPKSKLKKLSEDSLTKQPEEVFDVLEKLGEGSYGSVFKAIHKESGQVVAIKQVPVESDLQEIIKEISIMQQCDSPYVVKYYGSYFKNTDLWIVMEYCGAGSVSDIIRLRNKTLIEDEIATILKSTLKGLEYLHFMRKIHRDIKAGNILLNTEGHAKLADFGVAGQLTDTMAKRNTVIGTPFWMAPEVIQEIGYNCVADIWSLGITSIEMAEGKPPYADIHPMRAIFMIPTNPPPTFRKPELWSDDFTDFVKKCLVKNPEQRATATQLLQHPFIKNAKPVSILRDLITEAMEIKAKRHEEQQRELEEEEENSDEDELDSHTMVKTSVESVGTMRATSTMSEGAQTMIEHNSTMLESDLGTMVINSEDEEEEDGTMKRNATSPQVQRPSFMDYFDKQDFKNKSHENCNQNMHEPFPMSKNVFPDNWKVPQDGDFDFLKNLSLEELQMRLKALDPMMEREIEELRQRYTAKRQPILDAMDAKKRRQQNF

Row | SMILES | IC50 (STK3) | IC50 (STK4)
1 | CCCNc1ncnc2[nH]cc(-c3cccc(Cl)c3)c12 [Compound 50, 5-(3-chlorophenyl)-N-propyl-7H-pyrrolo[2,3-d]pyrimidin-4-amine] | < 1 µM | < 1 µM
2 | CCN(CC)c1ncnc2[nH]cc(-c3cccc(Cl)c3)c12 [Compound 51, 5-(3-chlorophenyl)-N,N-diethyl-7H-pyrrolo[2,3-d]pyrimidin-4-amine] | < 1 µM | < 1 µM
3 | CC(C)CNc1ncnc2[nH]cc(-c3cccc(Cl)c3)c12 [Compound 52, 5-(3-chlorophenyl)-N-isobutyl-7H-pyrrolo[2,3-d]pyrimidin-4-amine] | < 1 µM | < 1 µM
4 | C=CCNc1ncnc2[nH]cc(-c3cccc(Cl)c3)c12 [Compound 53, N-allyl-5-(3-chlorophenyl)-7H-pyrrolo[2,3-d]pyrimidin-4-amine] | < 1 µM | < 1 µM
5 | OCCNc1ncnc2[nH]cc(-c3cccc(Cl)c3)c12 [Compound 54, 2-((5-(3-chlorophenyl)-7H-pyrrolo[2,3-d]pyrimidin-4-yl)amino)ethan-1-ol] | < 1 µM | < 1 µM
6 | FC(F)(F)CNc1ncnc2[nH]cc(-c3cccc(Cl)c3)c12 [Compound 55, 5-(3-chlorophenyl)-N-(2,2,2-trifluoroethyl)-7H-pyrrolo[2,3-d]pyrimidin-4-amine] | 1 to 5 µM | < 1 µM
7 | CN(C)CCNc1ncnc2[nH]cc(-c3cccc(Cl)c3)c12 [Compound 57, N1-(5-(3-chlorophenyl)-7H-pyrrolo[2,3-d]pyrimidin-4-yl)-N2,N2-dimethylethane-1,2-diamine] | > 5 µM | > 5 µM
8 | COCCNc1ncnc2[nH]cc(-c3cccc(Cl)c3)c12 [Compound 58, 5-(3-chlorophenyl)-N-(2-methoxyethyl)-7H-pyrrolo[2,3-d]pyrimidin-4-amine] | > 5 µM | > 5 µM
9 | Clc1cccc(-c2c[nH]c3ncnc(NCc4ccn[nH]4)c23)c1 [Compound 59, N-((1H-pyrazol-5-yl)methyl)-5-(3-chlorophenyl)-7H-pyrrolo[2,3-d]pyrimidin-4-amine] | 1 to 5 µM | < 1 µM
10 | Clc1cccc(-c2c[nH]c3ncnc(NCC4CCOCC4)c23)c1 [Compound 61, 5-(3-chlorophenyl)-N-((tetrahydro-2H-pyran-4-yl)methyl)-7H-pyrrolo[2,3-d]pyrimidin-4-amine] | 1 to 5 µM | < 1 µM
11 | Clc1cccc(-c2c[nH]c3ncnc(NCc4ccoc4)c23)c1 [Compound 62, 5-(3-chlorophenyl)-N-(furan-3-ylmethyl)-7H-pyrrolo[2,3-d]pyrimidin-4-amine] | < 1 µM | < 1 µM
12 | Clc1cccc(-c2c[nH]c3ncnc(NCCc4ccccn4)c23)c1 [Compound 63, 5-(3-chlorophenyl)-N-(2-(pyridin-2-yl)ethyl)-7H-pyrrolo[2,3-d]pyrimidin-4-amine] | 1 to 5 µM | < 1 µM
13 | CC(C)CCNc1ncnc2[nH]cc(-c3cccc(Cl)c3)c12 [Compound 64, 5-(3-chlorophenyl)-N-isopentyl-7H-pyrrolo[2,3-d]pyrimidin-4-amine] | 1 to 5 µM | 1 to 5 µM
14 | CN1CCC(Nc2ncnc3[nH]cc(-c4cccc(Cl)c4)c23)CC1 [Compound 65, 5-(3-chlorophenyl)-N-(1-methylpiperidin-4-yl)-7H-pyrrolo[2,3-d]pyrimidin-4-amine] | 1 to 5 µM | 1 to 5 µM
15 | Clc1cccc(-c2c[nH]c3ncnc(NCCN4CCOCC4)c23)c1 [Compound 66, 5-(3-chlorophenyl)-N-(2-morpholinoethyl)-7H-pyrrolo[2,3-d]pyrimidin-4-amine] | 1 to 5 µM | 1 to 5 µM
16 | COc1ccccc1CNc1ncnc2[nH]cc(-c3cccc(Cl)c3)c12 [Compound 68, 5-(3-chlorophenyl)-N-(2-methoxybenzyl)-7H-pyrrolo[2,3-d]pyrimidin-4-amine] | 1 to 5 µM | 1 to 5 µM
17 | Clc1cccc(-c2c[nH]c3ncnc(NCc4ccncc4)c23)c1 [Compound 71, 5-(3-chlorophenyl)-N-(pyridin-4-ylmethyl)-7H-pyrrolo[2,3-d]pyrimidin-4-amine] | > 5 µM | 1 to 5 µM
18 | COc1ccc(CCNc2ncnc3[nH]cc(-c4cccc(Cl)c4)c23)cc1OC [Compound 72, 5-(3-chlorophenyl)-N-(3,4-dimethoxyphenethyl)-7H-pyrrolo[2,3-d]pyrimidin-4-amine] | > 5 µM | 1 to 5 µM
19 | COc1ccc(CNc2ncnc3[nH]cc(-c4cccc(Cl)c4)c23)c(OC)c1 [Compound 73, 5-(3-chlorophenyl)-N-(2,4-dimethoxybenzyl)-7H-pyrrolo[2,3-d]pyrimidin-4-amine] | > 5 µM | 1 to 5 µM

Row | SMILES | IC50 (STK3) | IC50 (STK4)
20 | COc1cccc(CNc2ncnc3[nH]cc(-c4cccc(Cl)c4)c23)c1 [Compound 74, 5-(3-chlorophenyl)-N-(3-methoxybenzyl)-7H-pyrrolo[2,3-d]pyrimidin-4-amine] | > 5 µM | > 5 µM
21 | Clc1cccc(-c2c[nH]c3ncnc(NCc4cnco4)c23)c1 [Compound 75, 5-(3-chlorophenyl)-N-(oxazol-5-ylmethyl)-7H-pyrrolo[2,3-d]pyrimidin-4-amine] | > 5 µM | > 5 µM
22 | Clc1cccc(-c2c[nH]c3ncnc(NCc4cnc[nH]4)c23)c1 [Compound 76, N-((1H-imidazol-5-yl)methyl)-5-(3-chlorophenyl)-7H-pyrrolo[2,3-d]pyrimidin-4-amine] | > 5 µM | > 5 µM
23 | Clc1cccc(-c2c[nH]c3ncnc(NCc4nccs4)c23)c1 [Compound 79, 5-(3-chlorophenyl)-N-(thiazol-2-ylmethyl)-7H-pyrrolo[2,3-d]pyrimidin-4-amine] | > 5 µM | > 5 µM
24 | CCN1CCCC1CNc1ncnc2[nH]cc(-c3cccc(Cl)c3)c12 (stereo not shown) [Compound 80, 5-(3-chlorophenyl)-N-((1-ethylpyrrolidin-2-yl)methyl)-7H-pyrrolo[2,3-d]pyrimidin-4-amine] | > 5 µM | > 5 µM
25 | Clc1cccc(-c2c[nH]c3ncnc(N4CCC(N5CCCCC5)CC4)c23)c1 [Compound 81, 4-([1,4′-bipiperidin]-1′-yl)-5-(3-chlorophenyl)-7H-pyrrolo[2,3-d]pyrimidine] | > 5 µM | 1 to 5 µM
26 | CCN(CC)CCNc1ncnc2[nH]cc(-c3cccc(Cl)c3)c12 [Compound 82, N1-(5-(3-chlorophenyl)-7H-pyrrolo[2,3-d]pyrimidin-4-yl)-N2,N2-diethylethane-1,2-diamine] | > 5 µM | > 5 µM
27 | Clc1cccc(-c2c[nH]c3ncnc(NCCN4CCCC4)c23)c1 [Compound 83, 5-(3-chlorophenyl)-N-(2-(pyrrolidin-1-yl)ethyl)-7H-pyrrolo[2,3-d]pyrimidin-4-amine] | > 5 µM | > 5 µM
28 | Clc1cccc(-c2c[nH]c3ncnc(NCC4CCCCCC4)c23)c1 [Compound 84, 5-(3-chlorophenyl)-N-(cycloheptylmethyl)-7H-pyrrolo[2,3-d]pyrimidin-4-amine] | > 5 µM | > 5 µM
29 | Cc1ccc(CNc2ncnc3[nH]cc(-c4cccc(Cl)c4)c23)cc1C [Compound 85, 5-(3-chlorophenyl)-N-(3,4-dimethylbenzyl)-7H-pyrrolo[2,3-d]pyrimidin-4-amine] | > 5 µM | > 5 µM
30 | Clc1cccc(-c2c[nH]c3ncnc(NCc4ccc(Cl)nc4)c23)c1 [Compound 86, 5-(3-chlorophenyl)-N-((6-chloropyridin-3-yl)methyl)-7H-pyrrolo[2,3-d]pyrimidin-4-amine] | > 5 µM | > 5 µM
31 | Clc1cccc(-c2c[nH]c3ncnc(N4CCC(c5ccccc5)CC4)c23)c1 [Compound 87, 5-(3-chlorophenyl)-4-(4-phenylpiperidin-1-yl)-7H-pyrrolo[2,3-d]pyrimidine] | > 5 µM | > 5 µM
32 | Clc1cccc(-c2c[nH]c3ncnc(NCCC(c4ccccc4)c4ccccc4)c23)c1 [Compound 88, 5-(3-chlorophenyl)-N-(3,3-diphenylpropyl)-7H-pyrrolo[2,3-d]pyrimidin-4-amine] | > 5 µM | > 5 µM
33 | Clc1cccc(-c2c[nH]c3ncnc(N4CCN(c5ccccc5)CC4)c23)c1 [Compound 89, 5-(3-chlorophenyl)-4-(4-phenylpiperazin-1-yl)-7H-pyrrolo[2,3-d]pyrimidine] | > 5 µM | > 5 µM
34 | Clc1cccc(-c2c[nH]c3ncnc(N4CCC(Cc5ccccc5)CC4)c23)c1 [Compound 90, 4-(4-benzylpiperidin-1-yl)-5-(3-chlorophenyl)-7H-pyrrolo[2,3-d]pyrimidine] | > 5 µM | > 5 µM
35 | Cc1cccc(CNc2ncnc3[nH]cc(-c4cccc(Cl)c4)c23)c1 [Compound 91, 5-(3-chlorophenyl)-N-(3-methylbenzyl)-7H-pyrrolo[2,3-d]pyrimidin-4-amine] | > 5 µM | > 5 µM
36 | Clc1cccc(-c2coc3nccc(N4CCOCC4)c23)c1 [Compound 94, 3-(3-chlorophenyl)-4-morpholinofuro[2,3-b]pyridine] | > 5 µM | > 5 µM
37 | Cn1cc(-c2cccc(Cl)c2)c2c(N3CCOCC3)ncnc21 [Compound 95, 4-(5-(3-chlorophenyl)-7-methyl-7H-pyrrolo[2,3-d]pyrimidin-4-yl)morpholine] | > 5 µM | > 5 µM
38 | NS(=O)(=O)c1ccc(Nc2nc(N3CCOCC3)c3c(-c4cccc(Cl)c4)c[nH]c3n2)cc1 [Compound 96, 4-((5-(3-chlorophenyl)-4-morpholino-7H-pyrrolo[2,3-d]pyrimidin-2-yl)amino)benzenesulfonamide] | 1 to 5 µM | < 1 µM

From US20250051337A1 (priority 2021, published 2025)
